Format in all cases: cell-based
For one test, the target named is T1, AKT1 (Homo sapiens, UniProt P31749).
T1 construct: AKT1, AKT2, and AKT3 proteins in H1975-OR cells; endogenous in cells; host or cells: H1975-OR (osimertinib-resistant H1975)
Nature of the test: Western Blot, degradation of AKT1 protein in H1975-OR cells. To be noted: 1000 nM, 24 hours, maximum degradation rate. Put shortly: (§1)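 H1975-OR cells are Osimertinib-resistant H1975, adapted stepwise from 50 nM to 3 μM Osimertinib. Cells were treated with compound for 24 h, lysed, and immunoblotted with ECL detection. Band grayscale density was quantified.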

For the next test, the target named is T2, AKT2 (Homo sapiens, UniProt P31751).
T2 construct: AKT1, AKT2, and AKT3 proteins in H1975-OR cells; endogenous in cells; host or cells: H1975-OR (osimertinib-resistant H1975)
Put plainly: Western Blot, degradation of AKT2 protein in H1975-OR cells. To be noted: 1000 nM, 24 hours, maximum degradation rate. The method in brief: as §1

The next test relates to AKT1/2. Put plainly: Immunoblotting, AKT1/2 protein levels in other tumor cells (H1975, PC-9, H1299, A549). To be noted: H1975, PC-9, H1299 and A549 cells, different concentrations, 24 hours. Here is the method:
(§2) Conventional Western Blot (immunoblotting) was used for detection, as follows: a certain number of H1975-OR cells were planted on a 96 well plate, adherent cultured in an incubator overnight, and added a certain concentration of compound to act for 24 hours. 1×SDS lysis buffer with protease and phosphatase inhibitors was used to lyse cells. Cell lysates were separated by SDS-PAGE and transferred to PVDF membrane. Then, at room temperature, the PCDF membrane was taken out and immersed in a sealing solution (5% BSA TBS solution containing 0.5% Tween-20) for sealing treatment for 1 hour, and then incubated with a specific primary antibody at 4° C. overnight. The imprints were washed with TBST and incubated with horseradish peroxidase (HRP) labeled secondary antibodies at room temperature for 2 hours. Finally, ECL plus fluorescence detection reagent (Thermo Scientific, Waltham, MA) was used for protein development, and the Amersham Imager 600 system (GE, America) was used for photography. The detection results were processed using ImageJ software to obtain the grayscale value G (Density).
(§3) Tumor cells ([…], and A549) was incubated with different concentrations of compound ZX-HYT-11 for 24 hours, and then analyzed the protein levels of AKT1/2/3 using immunoblotting method as described in Embodiment 105.
(In general: A western blot detects proteins with antibodies after separation by electrophoresis.)

In the next test the test system is H1975. Nature of the test: CCK-8 tumor cell proliferation, H1975. The note with it: Homo sapiens, NCI-H1975, H1975 cells, 72 hours. The method in brief:
(§4)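 Cells seeded at 2000-3000 cells/well in complete medium and incubated overnight, then treated with compounds (0.000508 μM-10 μM) for 72 hours. Proliferation was measured by CCK-8, and IC50 values were obtained by fitting concentration-response curves, reported as mean±SD.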

The next test has as its system H1975OR. Nature of the test: CCK-8 tumor cell proliferation, H1975OR. To be noted: H1975OR cells (Osimertinib resistant), 72 hours. The method in brief:
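Osimertinib-resistant H1975 cells, selected by raising Osimertinib stepwise from 50 nM to 3 μM, were treated for 72 h with compound at 0.000508–10 μM. Proliferation was read by CCK-8, and IC50 came from fitting the concentration–response curve, given as mean ± SD.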

For the next test, the system named is PC-9. Nature of the test: CCK-8 tumor cell proliferation, PC-9. The note with it: Homo sapiens, PC-9 cells, 72 hours. Put shortly:
as §4

Another test concerns A431. Nature of the test: CCK-8 tumor cell proliferation, A431. To be noted: Homo sapiens, A-431, A431 cells, 72 hours. The method in brief:
as §4

In another test the test system is HCC827. Nature of the test: CCK-8 tumor cell proliferation, HCC827. The note with it: Homo sapiens, HCC827 cells, 72 hours. The method in brief:
as §4

The subject of another test is H1299. Put plainly: CCK-8 tumor cell proliferation, H1299. To be noted: Homo sapiens, NCI-H1299, H1299 cells, 72 hours. The method in brief: as §4
In another test the test system is MDA-MB-231. Nature of the test: CCK-8 tumor cell proliferation, MDA-MB-231. The note with it: Homo sapiens, MDA-MB-231 cells, 72 hours. Here is the method: (§5) Tumor cells (see Table 2 to Table 5) were inoculated in 96-well plates in complete culture medium (2000-3000 cells/well). After overnight incubation, the compounds with different concentrations (0.000508 μM-10 μM) were used to treat the cells separately for 72 hours. CCK-8 (Cell Counting Kit 8, Dojindo Laboratories, Kumamoto, Japan) experiment was used to evaluate cell proliferation. GraphPad Prism 5.0 software (La Jolla, CA) was used to calculate the half-maximal inhibitory concentration (IC50) values by fitting the concentration response curve. Each IC50 value was represented as an average value±SD.

The subject of another test is MDA-MB-453. Put plainly: CCK-8 tumor cell proliferation, MDA-MB-453. The note with it: Homo sapiens, MDA-MB-453 cells, 72 hours. Here is the method:
as §5

The next test relates to BT-549. Nature of the test: CCK-8 tumor cell proliferation, BT-549. To be noted: Homo sapiens, BT-549 cells, 72 hours. Here is the method:
as §5

In a further test the test system is Bel-7402. Nature of the test: CCK-8 tumor cell proliferation, Bel-7402. The note with it: Homo sapiens, Bel-7402 cells, 72 hours. The procedure: as §5
The test system of the next test is Huh7. Put plainly: CCK-8 tumor cell proliferation, Huh7. To be noted: Homo sapiens, Huh-7, Huh7 cells, 72 hours. Here is the method:
as §5

A further test relates to HCC1937. Nature of the test: CCK-8 tumor cell proliferation, HCC1937. To be noted: Homo sapiens, HCC1937 cells, 72 hours. The procedure: as §5
In test [1] the target is T3, AKT3 (Homo sapiens, UniProt Q9Y243). Put plainly: Western Blot, degradation of AKT3 protein in H1975-OR cells. On the set-up: endogenous in cells; host or cells: H1975-OR (osimertinib-resistant H1975). To be noted: 1000 nM, 24 hours, maximum degradation rate. Put shortly: as §1
In test [2] the target is T3, AKT3. Nature of the test: Immunoblotting, AKT3 protein level in other tumor cells (H1975, PC-9, H1299, A549). To be noted: H1975, PC-9, H1299 and A549 cells, different concentrations, 24 hours. On the set-up: analyzed the protein levels of AKT1/2/3 using immunoblotting method as described in Embodiment 105; endogenous in cells; host or cells: H1975, PC-9, H1299, A549. The procedure: as §2, §3

By Dmax is commonly meant the largest share of the target that was removed. In general, IC50 refers to the midpoint of a concentration-inhibition curve. Read a low IC50 as higher potency.

Each structure is given as a SMILES string.

T3 sequence (Q9Y243 whole entry): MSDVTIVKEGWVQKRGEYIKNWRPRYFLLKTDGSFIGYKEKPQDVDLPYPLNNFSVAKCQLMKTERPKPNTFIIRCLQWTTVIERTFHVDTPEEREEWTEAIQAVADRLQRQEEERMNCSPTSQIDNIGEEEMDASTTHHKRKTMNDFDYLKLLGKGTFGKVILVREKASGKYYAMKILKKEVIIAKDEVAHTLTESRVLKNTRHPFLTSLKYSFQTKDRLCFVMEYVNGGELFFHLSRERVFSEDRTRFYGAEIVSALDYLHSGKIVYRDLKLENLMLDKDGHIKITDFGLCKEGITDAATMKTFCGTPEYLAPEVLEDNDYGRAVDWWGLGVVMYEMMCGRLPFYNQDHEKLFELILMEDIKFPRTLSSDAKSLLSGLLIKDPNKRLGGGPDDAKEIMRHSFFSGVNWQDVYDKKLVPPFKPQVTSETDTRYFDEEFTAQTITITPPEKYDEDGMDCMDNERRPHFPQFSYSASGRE
T1 sequence (P31749 whole entry): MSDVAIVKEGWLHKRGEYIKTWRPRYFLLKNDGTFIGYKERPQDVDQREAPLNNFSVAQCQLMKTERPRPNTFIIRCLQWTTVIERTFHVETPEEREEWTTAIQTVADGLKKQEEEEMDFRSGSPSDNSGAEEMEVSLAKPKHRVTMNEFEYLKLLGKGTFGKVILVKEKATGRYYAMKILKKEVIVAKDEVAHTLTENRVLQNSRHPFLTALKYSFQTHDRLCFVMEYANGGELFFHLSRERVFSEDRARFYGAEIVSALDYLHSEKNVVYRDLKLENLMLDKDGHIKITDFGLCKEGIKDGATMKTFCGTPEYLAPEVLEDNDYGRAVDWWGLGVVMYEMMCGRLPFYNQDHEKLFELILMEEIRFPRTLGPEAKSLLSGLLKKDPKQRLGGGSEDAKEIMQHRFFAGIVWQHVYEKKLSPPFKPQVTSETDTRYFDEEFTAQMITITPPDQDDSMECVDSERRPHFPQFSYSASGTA
T2 sequence (P31751 whole entry): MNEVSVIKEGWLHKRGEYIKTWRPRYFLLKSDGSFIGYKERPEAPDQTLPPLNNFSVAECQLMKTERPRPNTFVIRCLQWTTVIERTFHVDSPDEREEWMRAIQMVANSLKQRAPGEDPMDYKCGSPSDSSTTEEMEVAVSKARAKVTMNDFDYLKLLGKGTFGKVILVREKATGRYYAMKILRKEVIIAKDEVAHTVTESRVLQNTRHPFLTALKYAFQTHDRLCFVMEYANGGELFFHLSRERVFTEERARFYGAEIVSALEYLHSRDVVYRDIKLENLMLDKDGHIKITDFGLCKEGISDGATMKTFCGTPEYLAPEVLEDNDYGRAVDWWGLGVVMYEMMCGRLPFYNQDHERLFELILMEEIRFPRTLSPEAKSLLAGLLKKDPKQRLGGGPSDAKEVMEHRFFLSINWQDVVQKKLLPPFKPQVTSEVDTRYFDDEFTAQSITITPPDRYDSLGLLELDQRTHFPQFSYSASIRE

As for `COc1cc(N2CCN(CCCCCCCCCCCCNC(=O)CC34CC5CC(CC(C5)C3)C4)CC2)ccc1Nc1ncc2c(C)cc(=O)n(-c3cccc(NC(=O)C4CC4)c3)c2n1` [ZX-HYT-11, N-(3-(2-((4-(4-(12-(2-(((3R, 5R, 7R)-adamantan-1-yl)acetylamino)dodecyl)piperazin-1-yl)-2-methoxyphenyl)amino)-5-methyl-7-oxypyridino [2,3-d]pyrimidin-8 (7H)-yl)phenyl)cyclopropane formamide], the Dmax at 1 µM on AKT1 was determined as 0%; on AKT2, 15.3%; on AKT3 [1] it was 91.1%. The “effect on AKT1/2 protein levels” value with AKT1/2 is “without affecting AKT1/2”. The IC50 with H1975 is 2.39 ± 2 µM; with H1975OR, 0.007 ± 0.0006 µM; in the test with PC-9 it was 0.0839 ± 0.0135 µM; in the test with A431, 0.0093 ± 0.0004 µM; in the test with HCC827, 0.0932 ± 0.014 µM; in the test with H1299 it was 0.27 ± 0.0723 µM. The IC50 was 0.0294 µM in the test with MDA-MB-231; over 10 µM in the test with MDA-MB-453; over 10 µM with BT-549; over 10 µM in the test on Bel-7402; 0.686 µM with Huh7; over 10 µM in the test on HCC1937. Moreover, at AKT3 [2], the “degradation of AKT3 protein” value is listed as “could selectively degrade AKT3 protein”.
